For the data set the following is noted: 298.15 K; 101.33 kPa; Liquid; Vibrating tube method.

± gives the expanded uncertainty stated by the source.

As to `CCC(C)N` (stereo not drawn) [2-butanamine], the molar volume is on record as 0.0001019 ± 1.1e-07 m3/mol.

On to `CCCCCCCCN` [1-octanamine], for which the molar volume worked out at 0.0001662 ± 1.1e-07 m3/mol.

In the case of `CCCCCCCN` [1-heptanamine], the molar volume stood at 0.0001496 ± 1.1e-07 m3/mol.

In the case of `CCCCCCCCCN` [1-aminononane], the molar volume is recorded as 0.0001829 ± 1.8e-07 m3/mol.

As to `CC(C)(C)N` [2-methyl-2-propanamine], the molar volume came out at 0.0001065 ± 1e-07 m3/mol.

In the case of `CC(C)N` [2-propanamine], the molar volume is given as 8.672e-05 ± 1e-07 m3/mol.

On to `CCCCCN` [1-pentanamine], for which the molar volume is reported as 0.0001163 ± 1.1e-07 m3/mol.

With `CCCCCCCCCCN` [1-decanamine], the molar volume is 0.000199 ± 2e-07 m3/mol.

On to `CCCCCCCCCCCCN` [1-dodecanamine], for which the molar volume worked out at 0.0002323 ± 2e-07 m3/mol.

In the case of `CCCCCCN` [1-hexanamine], the molar volume is on record as 0.0001331 ± 1.1e-07 m3/mol.

For `CC(C)CCN` [3-methyl-1-butanamine], the molar volume turned out to be 0.000117 ± 1.1e-07 m3/mol.

As for `CCC(C)(C)N` [1,1-dimethylpropylamine], the molar volume was 0.0001192 ± 1.3e-07 m3/mol.

On to `CC(C)CN` [2-methyl-1-propanamine], for which the molar volume is listed as 0.000101 ± 1e-07 m3/mol.

As for `CCCN` [propan-1-amine], the molar volume turned out to be 8.315e-05 ± 1e-07 m3/mol.

With `CCCCCCCCCCCCCCN` [1-tetradecanamine], the molar volume amounted to 0.0002655 ± 1e-07 m3/mol.

`CCCCN` [1-butanamine]: the molar volume was found to be 9.987e-05 ± 1e-07 m3/mol.

For `CCC(N)CC` [1-ethylpropylamine], the molar volume turned out to be 0.0001172 ± 2.4e-07 m3/mol.

`CCCCCCC` [heptane]: the molar volume was determined as 0.0001475 ± 1.1e-07 m3/mol.

Source of the values: the NIST ThermoML archive (doi:10.1016/j.jct.2010.12.025).
